Results on 8 compounds are retold here after paper PMC7175117, “Biological Evaluation and Docking Studies of New Carbamate, Thiocarbamate, and Hydrazide Analogues of Acyl Homoserine Lactones as Vibrio fischeri-Quorum Sensing Modulators” (Biomolecules, 2020).

Assay [1] deals with Vibrio fischeri quorum sensing system. In words: Antagonistic activity: decrease of bioluminescence in competition with OHHL (200 nM) in recombinant E. coli NM522 with sensor plasmid pSB401. The format is cell-based. The following applies: for IC50: increasing concentration of compound in competition with 200 nM OHHL; for residual bioluminescence: 100 µM of analogue in competition with 200 nM OHHL. On the procedure: (§1) The recombinant Escherichia coli strain NM522 with the sensor plasmid pSB401 was used to measure the induction of luminescence. Bacterial cultures were grown in Luria broth (50 mL) at 30 °C. After 18 h, this bacterial culture was diluted 10 times to be used in the assay using 96-well plates (100 µL per well). For agonistic activity, compounds were tested at increasing concentrations in DMSO (max 2% in a total volume of 200 µL of LB). For antagonistic activity, compounds were tested in competition with OHHL (200 nM) at increasing concentrations in DMSO (max 2% in a total volume of 200 µL). This 200 nM concentration of OHHL is fully pertinent since concentrations as low as 10 or 50 nM are already valid protocols as reported in meaningful studies. Bioluminescence was measured with a Tecan spark luminometer (Männedorf, Switzerland).
(§2) All compounds were evaluated for the ability to induce bioluminescence (agonistic activity) or to decrease bioluminescence in the presence of 3-oxo-hexanoyl-L-homoserine lactone (OHHL) at 200 nM (antagonistic activity). Hydrazide AHL analogues were deprived of any activity.
A first assessment of the antagonistic activity was performed by measuring residual bioluminescence at 100 µM concentration of analogues in competition with 200 nM of OHHL. […] A residual bioluminescence of 42% for the L-butyl carbamate derivative 2 vs. 89% for the D-isomer 3 was measured showing the influence of the configuration on luminescence and therefore on QS inhibition.
To determine IC50 values, the decrease of bioluminescence of was measured using increasing concentration of each compound in presence of 200 nM of OHHL (Table 1). Values ranging from 22 to 94 µM, in the range of other reported of AHL-structurally related QS inhibitors, were measured for compounds 2, 4–7, and 9–11. Differences in the calculated LogP values are consistent with inhibitory activity for most compounds except 4-nitrobenzyl analogues. This is the case for all thiocarbamates vs. carbamates, and also when comparing the butyl (2) and hexyl (4) derivatives, or the benzyl and 4-bromobenzyl substituents.

Assay [2] shares this test system. In words: Agonistic activity: induction of bioluminescence in recombinant E. coli NM522 with sensor plasmid pSB401. The format is cell-based. The protocol: as §1, §2

Each structure is given as a SMILES string. “Also recorded” adds a separate entry of the source.

In general, IC50 refers to the concentration that inhibits the measured activity by half.

Consider `O=C(N[C@H]1CCOC1=O)OCc1ccccc1` [Compound 5, N-(benzyloxycarbonyl)-L-homoserine lactone], for which the IC50 in assay [1] worked out at 86 µM.
The same measure, in the same setting: under `CCCCSC(=O)N[C@H]1CCOC1=O` [Compound 9, N-(butylthiocarbonyl)-L-homoserine lactone] stands 45 µM.
Still for that read-out and setting: in the case of `O=C(N[C@H]1CCOC1=O)SCc1ccccc1` [Compound 10, N-(benzylthiocarbonyl)-L-homoserine lactone] it was 64 µM.
`CCCCOC(=O)N[C@H]1CCOC1=O` [Compound 2, N-(butoxycarbonyl)-L-homoserine lactone]: in assay [1], the residual bioluminescence was found to be 42% and the IC50 was 94 µM.
On to `CCCCCCOC(=O)N[C@H]1CCOC1=O` [Compound 4, N-(hexyloxycarbonyl)-L-homoserine lactone], for which, in assay [1], the residual bioluminescence is 22% and the IC50 came to 73 µM.
`O=C(N[C@H]1CCOC1=O)OCc1ccc(Br)cc1` [Compound 6, N-(4-bromobenzyloxycarbonyl)-L-homoserine lactone]: the IC50 in assay [1] came out at 64 µM.
For `CCOC(=O)N[C@H]1CCOC1=O` [Compound 1, N-(ethoxycarbonyl)-L-homoserine lactone], in assay [2] (compound at 200 µM, OHHL reference at 200 nM), the “bioluminescence induced, relative to that obtained with the natural ligand OHHL at 200 nM” value was determined as 18%. For the same compound, the agonistic activity result in assay [2] (induction of bioluminescence, increasing concentrations) is recorded as “weak agonistic activity; also recorded: very weak agonistic activity”.
Consider `CCCCOC(=O)N[C@@H]1CCOC1=O` [Compound 3, N-(butoxycarbonyl)-D-homoserine lactone], for which, in assay [1], the residual bioluminescence amounted to 89%.
